Experimental data as given in patent US20090023773A1, “COMPOSITIONS AND METHODS FOR MODULATING GATED ION CHANNELS” (PainCeptor Pharma Corporation, priority 2007, published 2009).

Tests used:
ASIC2a+3 = assay: Whole cell patch clamp of ASIC2a/3 channel complex heterologously expressed in CHO cells (Example 3); type: cell-based; settings: 50 μM; CHO cells expressing ASIC2a+3; FIG. 10A
Protocol: Another example of an in vitro assessment method consists of using mammalian heterologous expression systems, which are known to the skilled in the art, and include a variety of mammalian cell lines such as COS, HEK, e.g., HEK293 and/or CHO, cells. Cell lines are transfected with gated ion channel(s) and used to perform electrophysiology as follows: All experiments are performed at room temperature (20-25° C.) in voltage clamp using conventional whole cell patch clamp methods (Neher, E., et al. (1978) Pfluegers Arch 375:219-228). The amplifier used is the EPC-9 (HEKA-electronics, Lambrect, Germany) run by a Macintosh G3 computer via an ITC-16 interface. Experimental conditions are set with the Pulse-software accompanying the amplifier. Data is low pass filtered and sampled directly to hard-disk at a rate of 3 times the cut-off frequency. […] The cells are held at a holding voltage of −60 mV and at the start of each experiment the current is continuously measured for 45 s to ensure a stable baseline. […] Current amplitudes are measured at the peak of the responses, and effect of the compounds is calculated as the amplitude at compound equilibrium divided by the amplitude of the current evoked by the pulse just before the compound is included. […] The trace represents the current evoked by the pH drop recorded using whole cell patch clamp electrophysiology.

[1] = tested on: chemically-induced spontaneous pain evoked by intraplantar injection of formalin; assay: Formalin test, model of acute tonic pain (Example 7); type: in vivo; settings: rat, 1 min prior to formalin
Protocol: Male Sprague-Dawley rats are housed together in groups of three animals under standard conditions with unrestricted access to food and water. All experiments are conducted according to the ethical guidelines for investigations of experimental pain in conscious animals (Zimmerman, 1983).
Assessment of formalin-induced flinching behavior in normal, uninjured rats (body weight 200-300 g) is made after formalin (2.5% in saline, 50-100 μl, s.c.) is injected into the plantar surface of the hindpaw using a 27 G needle. Rats are pretreated with test compounds either administered intravenously (IV), by subcutaneous injection (SC) or by orally (PO).
Nociceptive behavior is determined manually every 5 min by measuring the amount of time spent in each of four behavioral categories: 0, treatment of the injected hindpaw is indistinguishable from that of the contralateral paw; 1, the injected paw has little or no weight placed on it; 2, the injected paw is elevated and is not in contact with any surface; 3, the injected paw is licked, bitten, or shaken. A weighted nociceptive score, ranging from 0 to 3 is calculated by multiplying the time spent in each category by the category weight, summing these products, and dividing by the total time for each 5 min block of time. (Coderre et al., Pain 1993; 54: 43). On the basis of the resulting response patterns, […] of nociceptive behavior are identified and scored: first phase (P1; 0-5 min), interphase (Int; 6-15 min), second phase (P2; […]), phase 2A (P2A; 16-40 min) and phase 2B (P2B; 41-60 min).
Statistical analysis is performed using the Prism™ 4.01 software package (GraphPad, San Diego, Calif., USA). The difference in response levels between treatment groups and control vehicle group is analyzed using an ANOVA followed by Bonferroni's method for post-hoc pair-wise comparisons. A p value <0.05 is considered to be significant.

Row | SMILES | pH evoked response (ASIC2a+3 current) (ASIC2a+3) | pain intensity as evaluated by the licking behavior ([1]; SC, 2.5, 7.5, 25 and 75 mg/kg, FIG. 5A) | ED50 ([1]; SC, FIG. 5B, read-out: ED50 (number of licking and biting episodes in phase IIa of the formalin test)) [mg/kg]
1 | Cc1ccc(-c2nc(Nc3ccc(C(=O)O)cc3)c3cc(Cl)ccc3n2)cc1 [Compound 124] | markedly reduced |  | 
2 | Cc1cc(OC2CCN(Cc3ccccc3)CC2)c2cc(O)ccc2n1 [Compound 13, 4-(1-benzylpiperidin-4-yloxy)-2-methylquinolin-6-ol] |  | dose-dependent reduction | ~6
